Two molecules from patent US9408795B2, “Method for enhancing the growth and fullness of hair” (Avon Products, Inc., priority 2011, dated 2016) can be followed below.

This assay relates to FGFR1 gene expression. As to the kind of experiment: PCR to assess FGFR1 gene expression in human dermal papilla cells. The format is cell-based. The conditions noted are these: 48-hour incubation, normalized to 18S, vs DMSO control. The procedure: Method: PCR to assess FGFR1 gene expression in human dermal papilla cells, following administration of L-4-Thiazolylalanine, Pouzolzia petandra, or cis-6-nonenol.
Human dermal papilla cells (Cell Applications, CA) were plated at 5000 cells/cm^2 in collagen-coated 6-well culture plates in the Papilla Cell Growth Medium (Cell Application, CA) overnight in humidified atmosphere of 5% CO2 at 37° C. When dermal papilla cells reached 80-90% confluence, the medium was replaced with fresh medium and the compounds (L-4-Thiazolylalanine, Pouzolzia petandra, or cis-6-nonenol) dissolved in DMSO were added to the wells in duplicate at a concentration of 0.002% or 0.001%. DMSO was used a vehicle control. Following 48-hour incubation, the medium was removed and the cells were collected in the Lysis/Binding Solution (Ambion, Tex.) after being washed with cold PBS.
Total RNA was extracted from dermal papilla cells by using the RNAqueous kit (Ambion, Tex.) according to the manufacture's instruction. RNA was quantified on the Nanodrop ND-1000 Spectrophotometer (NanoDrop Technologies, DE) and the confirmation of integrity was determined using the Agilent Bioanalyzer before RNA was further processed for cDNA preparation. […]
RNA abundance of FGFR1 was measured using quantitative Real-Time PCR. […] All samples were run in triplicate and normalized to 18S and expressed as a percentage of the control.

The structures appear in SMILES notation.

For the molecule `N[C@@H](Cc1cscn1)C(=O)O` [L-4-Thiazolylalanine, 4-L-thiazolylalanine], the “Percent Inhibition of FGFR1 Expression” value (0.001% (w/v)) amounted to 59.13%. Turning to `CC/C=C\CCCCCO` [cis-6-nonenol], the “Percent Inhibition of FGFR1 Expression” value (0.002% (w/v)) was found to be 28.25%.
